Consider one compound from patent US4543256A, “(-)-10,1L Methylenedioxy-N-N-propylnoraporphine and methods employing it for inhibiting the effects of epileptic seizures and for prevention and treatment of duodenal ulcers” (Northeastern University, priority 1982, dated 1985).

This experiment concerns duodenal ulcers. Description: Cysteamine-induced duodenal ulcer in the rat. To be noted: for Duodenal Ulcer Intensity (Scale: 0-3): control 1.8; for Duodenal Ulcer Incidence (Positive/Total): control 10/12.
Setting [1] is: 50 μg/100g s.c. once daily seven days.
Where [2] appears, read: 100 μg/100g s.c. once daily seven days.

“Also recorded” adds a separate entry of the source. Counter-ions that a name gives are not always drawn.

Take `CCCN1CCc2cccc3c2[C@H]1Cc1ccc2c(c1-3)OCO2` [MDO-NPA, (-) 10, 11-methylenedioxy-N-n-propylnoraporphine-HCl]: under setting [1], the “Duodenal Ulcer Intensity (Scale: 0-3)” value came out at 0.8 and the “Duodenal Ulcer Incidence (Positive/Total)” value is reported as 4/6. Under setting [2], the “Duodenal Ulcer Intensity (Scale: 0-3)” value is 0.5 and the “Duodenal Ulcer Incidence (Positive/Total)” value was 3/6. Besides, the “effect on incidence and intensity of duodenal ulcers and gastric acid output, oral” value (administered orally) was “reduces the incidence and intensity of duodenal ulcers and the gastric acid output”. Also, the “dose effective in preventing ulcers” value (once daily for seven days before cysteamine-hydrochloride) was 50 micrograms per hundred grams of body weight. Further, the “effect on cysteamine-induced duodenal ulcers” value (rats given cysteamine) is given as “significant prevention of experimental duodenal ulcers; also recorded: virtually abolished”. For the setting “single high dose”, the “effect of a single high dose on duodenal ulcers” value is reported as “active”.
